According to patent US7629385B2, “Sphingolipid-derived pharmaceutical compositions” (priority 2004, dated 2009):

How the values were obtained:
PR8 virus = assay: microbe, parasite or virus in culture; assay type: cell-based, influenza virus
Raft liposomes = assay: Disrafter-Liposome Raftophile Assay (D-LRA); details: test compound 100 μM
Procedure: The raftophilicity of certain fluorescent indicators varies with the raft content of liposomes which, in turn, is determined by their lipid composition and the presence of raft modulators.
The D-LRA assay detects two extremes of raft modulation, disrafting and raft augmentation. % disrafting below 0 results from an actual increase in partition of the indicator, caused by an increased raft content of the liposomes. […] Significance can be ascribed to values above 25% (disrafting) and below −25% (disrafters by “augmentation”).
Liposomes (defined below) with a raft content of about 50% are incubated with potential disrafters. The change in raft content is then determined with an indicator (standard raftophile).
Raft liposomes: (35% cholesterol, 10.5% shingomyelin (SM), 3.5% GM1, 25.5% phosphatidylethanolamine (PE) and 25.5% phosphatidylcholine (PC))
Non-raft liposomes: N liposomes (50% PE, PC)
Liposomes are prepared by spreading lipids dissolved in tert. butanol on a glass surface at 50° C. in a rotary evaporator rinsed with nitrogen. After 6 h desiccation the lipids are taken up in 40 mM octyl-β-D-glucoside (OG) to a concentration of 1 mg/ml and dialysed for 24 h against 2 changes of 5 I PBS with 25 g Biobeads (Amberlite XAD-2) at 22° C.
Indicators are fluorescent compounds which preferentially partition into rafts. These are selected to represent different structural classes, and different excitation/emission wavelengths. This is important when raft modulators are tested which interfere with indicator fluorescence.
Perylene is a raftophilic compound which embeds completely into membranes.
GS-96 is a raftophilic adduct of the general structure cholesterol-linker-rhodamine-peptide (only the cholesterol is membrane-inserted).
N and R Liposomes were diluted into PBS to a final lipid concentration of 200 μg/ml and 100 μl aliquots preincubated 30 min 37° C. on a thermomixer (1000 rpm).
1 μl of DMSO (solvent controls) and the test compound stock solutions (all 10 mM in DMSO, except where noted) were added and incubated 2 h as above.
1 μl indicator in DMSO was then added (final indicator concentrations GS-96 0.2 μM, perylene 2 μM) and incubation continued for 1 h as above
Incubation mixes were centrifuged 20 min in the TLA-100 rotor of the Beckman Optima centrifuge at 400 000 g (37° C.).

RBL-2H3 cells = assay: Degranulation assay (β-hexosaminidase release); assay type: cell-based, rat
HIV-1 strain NL4-3 = assay: HIV assay: infection of HeLa TZM cells; assay type: cell-based; details: Human immunodeficiency virus 1, NL43, vs solvent
Influenza virus = assay: Virus budding assay (influenza assay); assay type: cell-based; details: MDCK cells
[1] = system: vesicular stomatitis virus (VSV); assay type: cell-based; details: HeLa cells
[2] = unidentified influenza virus, PR8, MDCK, read-out: inhibition of PR8 virus replication
[3] = Rattus norvegicus, RBL-2H3, 25 μM, vs solvent vehicle

SMILES | inhibition at 100 µM (PR8 virus; [2]) | Disrafting Activity [%] (Raft liposomes; perylene as marker) | inhibition at 20 µM (PR8 virus; [2]) | further results
CCCCCCCCCCCCC/C=C/[C@H](O)[C@H](CO)NCCCCCCCCCCCCCCCC [Compound 10o] | 40.8% | 91.0% | – | –
CCCCCCCCCCCCC/C=C/[C@@H](OC)[C@H](CO)NC(=O)COCCOCCOCCOCCOC [Compound 10v] | – | 96.1% | 87.4% | inhibition of viral reproduction (PR8 virus; influenza): very effective inhibition of the viral reproduction; inhibition at 12.5 µM (RBL-2H3 cells; Rattus norvegicus, RBL-2H3, 12.5 μM, vs solvent vehicle): 74%; inhibition at 20 µM (HIV-1 strain NL4-3): 45%
CCCCCCCCCCCCC/C=C/[C@@H](O)[C@H](CO)NC(=O)COC [Compound 10u] | – | 97.0% | 70.3% | inhibition at 25 µM (RBL-2H3 cells; [3]): 63%
CCCCCCCCCCCCCC=CC(O)C(CO)NC(=O)COCCOCCOCCOCCOC [Compound 10g, N-(3,6,9,12,15-Pentoxahexadecanoyl)-D-erythro-sphingosine] | – | 89.3% | – | inhibition of PR8 virus replication (PR8 virus; 20 μM, MDCK cells, vs solvent vehicle): 70%; activity in the mast cell degranulation assay (words) (RBL-2H3 cells): strongly inhibitory; inhibition of the release of β-hexosaminidase (RBL-2H3 cells; 25 μM, vs solvent vehicle): 65%
CCCCCCCCCCCCC/C=C/[C@@H](OC)[C@H](CO)NC(=O)CCCCC [Compound 10k] | – | 98.6% | 59.3% | –
CCCCCCCCCCCCC/C=C/[C@@H](OC)[C@@H](N)CO [Compound 10l, 3-Methylated D-erythro-sphingosine] | – | – | – | inhibition at 25 µM (RBL-2H3 cells; [3]): 84%
CCCCCCCCCCCCC/C=C/[C@@H](OC)[C@H](CO)NC(=O)/C=C(\C)CC/C=C(\C)CCC=C(C)C [Compound 10q] | 61.6% | – | – | –
CCCCCCCCCCCCC/C=C/[C@@H](O)[C@H](CO)NC(=O)/C=C(\C)CC/C=C(\C)CCC=C(C)C [Compound 10p] | 39.2% | – | – | Disrafting Activity [%] (Raft liposomes; GS-96 as marker): 58.9%
CCCCCCCCCCCCC/C=C/[C@@H](O)[C@H](CO)NC(=O)[C@H]1CC[C@H](C(C)(C)C)CC1 [Compound 10e, N-(trans-4-tert-butylcyclohexylcarbonyl)-D-erythro-sphingosine] | – | – | – | inhibition at 10 µM (PR8 virus; [2]): 21%
CCCCCCCCCCCCC/C=C/[C@@H](O)[C@H](CO)NCCCCCCCCCCCCCCCC [Compound 10n] | 34.7% | 94.8% | – | –
CCCCCCCCCCCCC/C=C/[C@@H](O)[C@H](CO)NC(=O)COCCOC [Compound 10h, N-(3,6-Dioxaheptanoyl)-D-erythro-sphingosine] | – | 72.2% | 75% | result in the virus budding assay (Influenza virus): particularly good results; inhibition at 25 µM (RBL-2H3 cells; [3]): 71%
CCCCCCCCCCCCC/C=C/[C@@H](O)[C@H](CO)NC(=O)CCOCCOCCOCCOCCN [Compound 10w] | – | 53.1% | – | inhibition at 25 µM (PR8 virus; [2]): 50.3%; inhibition at 6.25 µM (RBL-2H3 cells; Rattus norvegicus, RBL-2H3, 6.25 μM, vs solvent vehicle): 69%; inhibition at 20 µM (HIV-1 strain NL4-3): 52%
CCCCCCCCCCCCC/C=C/[C@@H](O)[C@H](CO)NC(=O)COCCOC [Compound 10a] | – | 99.2% | – | effect on viral infection in the VSV counterscreen [1]: no inhibitory effect on viral infection at all
